Test results published in the supplement of paper PMC11061612.

Legend:
[1] = tested on: JHH-4 (Hepatocellular Carcinoma); assay: combination Emax (second highest fraction inhibited in the dose matrix, 72 h); higher = more inhibition; extreme values may be limits of the assay
Method in brief: (§1)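 Bliss excess equals the observed combination effect minus the expected value EA + EB − EA·EB, where EA and EB are the effects of each agent alone. Combination Emax is the second-highest inhibition within the matrix. Inhibition was scaled from CellTiter-Glo 2.0 luminescence, with 0 set by vehicle wells and 1 by blank wells, after 72 hours of two-drug dosing of cells plated in 1536-well plates.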

[2] = tested on: DMS-114 (Small Cell Lung Carcinoma); assay: Bliss excess, mean over the matrix (fraction); higher = more synergy
Method in brief: as §1

[3] = tested on: SUP-B15 (B-Lymphoblastic Leukemia); assay: as above
Method in brief: as §1

[4] = tested on: PC-3 (Prostate Carcinoma); assay: as above
Method in brief: as §1

[5] = tested on: KY821 (Acute Myeloid Leukemia); assay: as above
Method in brief: as §1

[6] = tested on: COR-L279 (Small Cell Lung Carcinoma); assay: as above
Method in brief: as §1

[7] = tested on: MOG-G-CCM (Low Grade Glioma); assay: as above
Method in brief: as §1

RD (Rhabdomyosarcoma) = assay: as above
Method in brief: as §1

[8] = tested on: KU812 (Chronic Myelogenous Leukemia); assay: as above
Method in brief: as §1

[9] = tested on: KMS-12-BM (Plasma Cell Myeloma); assay: as above
Method in brief: as §1

[10] = tested on: NCI-H520 (Squamous Cell Lung Carcinoma); assay: as above
Method in brief: as §1

[11] = tested on: VMRC-RCZ (Kidney Carcinoma); assay: as above
Method in brief: as §1

[12] = tested on: MN-60 (B-Lymphoblastic Leukemia); assay: as above
Method in brief: as §1

[13] = tested on: ESO51 (Esophageal Adenocarcinoma); assay: as above
Method in brief: as §1

M059J (Glioblastoma) = assay: as above
Method in brief: as §1

SJSA-1 (Osteosarcoma) = assay: as above
Method in brief: as §1

[14] = tested on: IM-95 (Gastric Carcinoma); assay: as above
Method in brief: as §1

[15] = tested on: NCI-H661 (Non-Small Cell Lung Carcinoma); assay: as above
Method in brief: as §1

[16] = tested on: 8505C (Thyroid Gland Carcinoma); assay: as above
Method in brief: as §1

[17] = tested on: NCI-H929 (Plasma Cell Myeloma); assay: as above
Method in brief: as §1

Row | Compound | combination Emax [1] | Bliss excess [2] | Bliss excess [3] | Bliss excess [4] | Bliss excess [5] | Bliss excess [6] | Bliss excess [7] | Bliss excess (RD (Rhabdomyosarcoma)) | Bliss excess [8] | Bliss excess [9] | Bliss excess [10] | Bliss excess [11] | Bliss excess [12] | Bliss excess [13] | Bliss excess (M059J (Glioblastoma)) | Bliss excess (SJSA-1 (Osteosarcoma)) | Bliss excess [14] | Bliss excess [15] | Bliss excess [16] | Bliss excess [17]
1 | CN(CCO)CC[C@H](CSc1ccccc1)Nc1ccc(S(=O)(=O)NC(=O)c2ccc(N3CCC([C@@H](O)c4ccccc4-c4ccc(Cl)cc4)CC3)cc2)cc1S(=O)(=O)C(F)(F)F [AZD4320] + C=CCn1c(=O)c2cnc(Nc3ccc(N4CCN(C)CC4)cc3)nc2n1-c1cccc(C(C)(C)O)n1 [AZD1775] (first compound max 1 µM, partner max 1 µM) | 0.688 | 0.0074 | 0.0733 | -0.0525 | -0.0117 | 0.0798 | 0.0069 | 0.0669 | 0.0788 | 0.0716 | -0.0444 | -0.0418 | -0.0058 | 0.0693 | 0.0448 | -0.0545 | -0.0023 | -0.0018 | 0.0033 | -0.0219
2 | CC1(C)CCC(CN2CCN(c3ccc(C(=O)NS(=O)(=O)c4ccc(NCC5CCOCC5)c([N+](=O)[O-])c4)c(Oc4cnc5[nH]ccc5c4)c3)CC2)=C(c2ccc(Cl)cc2)C1 [Venetoclax] + C[C@@H](Nc1cc(F)cc(F)c1)c1cc(C(=O)N(C)C)cc2c(=O)cc(N3CCOCC3)oc12 [AZD8186] (first compound max 1 µM, 7x7, partner max 3 µM) | 0.211 | -0.0297 | -0.0587 | 0.0065 | 0.0235 | 0.0138 | 0.0384 | 0.0032 | -0.024 | 0.0494 | -0.0637 | -0.0215 | 0.044 | 0.0204 | -0.0141 | -0.0247 | -0.068 | -0.0241 | -0.024 | -0.007
3 | CN(CCO)CC[C@H](CSc1ccccc1)Nc1ccc(S(=O)(=O)NC(=O)c2ccc(N3CCC([C@@H](O)c4ccccc4-c4ccc(Cl)cc4)CC3)cc2)cc1S(=O)(=O)C(F)(F)F [AZD4320] + C[C@@H]1COCCN1C2=NC(=NC(=C2)C3(CC3)[S@](=N)(=O)C)C4=C5C=CNC5=NC=C4 [AZD6738] (first compound max 1 µM, 7x7, partner max 10 µM) | 0.385 | 0.0073 | 0.0245 | -0.0367 | -0.0241 | 0.0292 | -0.0311 | -0.0334 | 0.0007 | 0.0012 | -0.0547 | -0.0331 | -0.0472 | -0.0203 |  | -0.113 | -0.021 | -0.0197 | -0.0298 | -0.0097
4 | CN(C)CCCOc1ccc(-c2ccc3ncc4c(c3c2)n(C2CCOCC2)c(=O)n4C)cn1 [AZD0156] + C=CCn1c(=O)c2cnc(Nc3ccc(N4CCN(C)CC4)cc3)nc2n1-c1cccc(C(C)(C)O)n1 [AZD1775] (first compound max 1 µM, partner max 1 µM) | 0.428 | -0.0479 | 0.0282 | -0.0501 | -0.0505 | -0.0763 | -0.0193 | -0.0377 | -0.0046 | 0.0744 | -0.0692 | -0.0797 | 0.0193 | 0.0363 | -0.11 | -0.0674 | -0.0366 | -0.0615 | -0.0492 | -0.0464
5 | Cc1c2c(nn1C)CSCc1cc(n(C)n1)CSc1cc(c3ccccc3c1)OCCCc1c(C(=O)O)n(C)c3c-2c(Cl)ccc13 [AZD5991] + C1CN(CCC1(C(=O)N[C@@H](CCO)C2=CC=C(C=C2)Cl)N)C3=NC=NC4=C3C=CN4 [Capivasertib] (first compound max 1 µM, 7x7, partner max 3 µM) | 0.211 | 0.0696 | -0.0025 | -0.0404 | -0.0471 | 0.0417 | -0.0178 | 0.0465 | -0.0011 | 0.0127 | -0.0548 | -0.0347 | 0.0165 | -0.0239 | -0.101 | -0.0248 | -0.0384 | 0.0375 | -0.0111 | -0.0168
6 | COc1nnc2ccc(N3CCC(c4ccc(OCCN5CCN(C)C(=O)[C@H]5C)cc4)CC3)nn12 [AZD5153] + CCN(CCO)CCCOc1ccc2c(Nc3cc(CC(=O)Nc4cccc(F)c4)[nH]n3)ncnc2c1 [AZD2811] (first compound max 1 µM, 7x7, partner max 1 µM) | 0.367 | -0.0127 | -0.028 | -0.0257 | 0.0574 | -0.0201 | -0.052 | 0.0001 | -0.0011 | 0.0641 | 0.0242 | -0.0259 | -0.0224 | -0.0152 | -0.0225 | -0.0335 | -0.0664 | -0.0318 | 0.03 | -0.0026
7 | Cc1cc2ncnn2cc1Nc1ncc2c(n1)n(C1CCOCC1)c(=O)n2C [AZD7648] + O=C(c1cc(Cc2n[nH]c(=O)c3ccccc23)ccc1F)N1CCN(C(=O)C2CC2)CC1 [Olaparib] (first compound max 10 µM, 7x7, partner max 10 µM) | 0.112 | -0.0092 | 0.0239 | -0.0263 | -0.0003 | -0.0256 | -0.0269 | -0.0508 | -0.0425 | 0.027 | -0.0742 | -0.0546 | -0.0115 | -0.0056 | -0.097 | -0.036 | -0.0303 | -0.0373 | -0.0202 | -0.0192
8 | CN(CCO)CC[C@H](CSc1ccccc1)Nc1ccc(S(=O)(=O)NC(=O)c2ccc(N3CCC([C@@H](O)c4ccccc4-c4ccc(Cl)cc4)CC3)cc2)cc1S(=O)(=O)C(F)(F)F [AZD4320] + Cc1cc2ncnn2cc1Nc1ncc2c(n1)n(C1CCOCC1)c(=O)n2C [AZD7648] (first compound max 1 µM, 7x7, partner max 10 µM) | 0.233 | -0.0514 | -0.0072 | -0.0432 | 0.0393 | -0.0057 | -0.0387 | -0.0189 |  | 0.0317 | -0.0691 | -0.058 | -0.0177 | -0.0168 | -0.0258 | -0.0406 | -0.0645 | -0.0289 | -0.0315 | 0.0134
9 | Cc1c2c(nn1C)CSCc1cc(n(C)n1)CSc1cc(c3ccccc3c1)OCCCc1c(C(=O)O)n(C)c3c-2c(Cl)ccc13 [AZD5991] + CN(C)CCCOc1ccc(-c2ccc3ncc4c(c3c2)n(C2CCOCC2)c(=O)n4C)cn1 [AZD0156] (first compound max 1 µM, 7x7, partner max 1 µM) | 0.331 | 0.003 | -0.0117 |  | -0.0327 | -0.0051 | -0.0067 | 0.0095 | -0.0788 | -0.0445 | -0.0011 | -0.018 | 0.0047 | 0.0193 | 0.006 | 0.0256 | -0.0198 | -0.0054 | -0.137 | -0.0121
10 | CCc1c2c(nc3ccc(O)cc13)-c1cc3c(c(=O)n1C2)COC(=O)[C@]3(O)CC [SN-38] + O=C(c1cc(Cc2n[nH]c(=O)c3ccccc23)ccc1F)N1CCN(C(=O)C2CC2)CC1 [Olaparib] (first compound max 0.3 µM, 7x7, partner max 10 µM) |  | 0.0741 |  |  | 0.0503 | 0.0742 | 0.099 |  | 0.0053 |  | 0.0654 | 0.0072 | 0.0066 | -0.0199 | 0.0784 | 0.0423 | 0.036 | 0.0696 | 0.0498 | 0.0505
11 | C[C@@H](c1ccc2nccn2c1)n1nnc2ncc(-c3cnn(C)c3)nc21 [Savolitinib] + CN(CC[C@H](CSC1=CC=CC=C1)NC2=C(C=C(C=C2)S(=O)(=O)NC(=O)C3=CC=C(C=C3)N4CCC(CC4)[C@H](C5=CC=CC=C5C6=CC=C(C=C6)Cl)O)S(=O)(=O)C(F)(F)F)CCO [AZD4320] (first compound max 1 µM, 7x7, partner max 1 µM) | 0.256 |  | -0.0182 | -0.0418 | 0.0059 |  |  | -0.0348 |  | -0.0005 |  |  |  | -0.0038 |  |  | -0.0477 | -0.0669 | -0.0719 | 
12 | CS(=O)(=O)CCNCc1ccc(-c2ccc3ncnc(Nc4ccc(OCc5cccc(F)c5)c(Cl)c4)c3c2)o1 [Lapatinib] + Cn1cnc2c(F)c(Nc3ccc(Br)cc3Cl)c(C(=O)NOCCO)cc21 [Selumetinib] (first compound max 10 µM, 7x7, partner max 10 µM) |  | -0.044 |  |  |  | -0.0224 | -0.0433 |  | 0.0082 |  | -0.034 | -0.0149 | -0.0751 |  | -0.0403 | -0.0364 |  |  |  | 0.0271
13 | C=CCn1c(=O)c2cnc(Nc3ccc(N4CCN(C)CC4)cc3)nc2n1-c1cccc(C(C)(C)O)n1 [AZD1775] + O=C(c1cc(Cc2n[nH]c(=O)c3ccccc23)ccc1F)N1CCN(C(=O)C2CC2)CC1 [Olaparib] (first compound max 1 µM, partner max 10 µM) | 0.307 | -0.021 | -0.0148 | -0.0663 | 0.019 | -0.0572 | -0.0542 | -0.0532 | -0.039 | -0.0239 | -0.0057 | -0.0443 | -0.0143 | -0.0917 | 0.0374 | -0.0262 | -0.0047 | -0.0179 |  | -0.0525
14 | COc1nnc2ccc(N3CCC(c4ccc(OCCN5CCN(C)C(=O)[C@H]5C)cc4)CC3)nn12 [AZD5153] + CN(CC[C@H](CSC1=CC=CC=C1)NC2=C(C=C(C=C2)S(=O)(=O)NC(=O)C3=CC=C(C=C3)N4CCC(CC4)[C@H](C5=CC=CC=C5C6=CC=C(C=C6)Cl)O)S(=O)(=O)C(F)(F)F)CCO [AZD4320] (first compound max 1 µM, 7x7, partner max 1 µM) | 0.36 |  | -0.0077 | 0.0691 | 0.0111 |  |  | 0.0526 |  | 0.0143 |  |  |  | -0.0079 |  |  | -0.0568 | 0.0102 | 0.0185 | 
